From US20020040027A1, “Method for the prevention of the reinfestation of warm-blooded animals by ectoparasites” (priority 1996, published 2002)

What was measured:
[1] = tested on: cat fleas [Ctenocephalides felis]; experiment: Flea control by oral administration of the active ingredient to the host animal (cats); type: in vivo; settings: cats infected with 100 cat fleas, treated orally on day 0 with 50 mg/kg of body weight (capsule); after 45 days
Procedure: Flea control by oral administration of the active ingredient to the host animal 20 cats with the proven ability permanently to maintain a flea population are divided into 6 groups: 5 groups each being composed of 3 or 4 animals and a sixth group, which serves as the control group, being composed of 2 animals. Each of the cats is infected with 100 cat fleas [Ctenocephalides felis]. The cats of the 5 groups are treated orally on day 0 with 50 mg of active ingredient per kg of body weight. The active ingredient is administered in the form of a capsule. The control group remains untreated. […] The eggs are counted and placed on a medium suitable for the growth of larvae and incubated. The number of pupae and fully grown fleas that develop is determined.

Amblyomma hebraeum = experiment: Tick control by subcutaneous administration of the active ingredient to the host animal (chicks); type: in vivo; settings: subcutaneously injected dose of 3 mg/kg of body weight, treated vs untreated chicks; for % reduction nymphs: nymphs moulted from collected larvae; for % reduction larvae: replete larvae
Procedure: Tick control by subcutaneous administration of the active ingredient to the host animal
13 day-old chicks of a fattened breed are infected with about 200 larvae of the tick species Amblyomma hebraeum and placed in pairs in cages. After three days, the chicks are injected subcutaneously with the active ingredient in an aqueous suspension. Within 2 to 6 days of the treatment, i.e. 5 to 9 days after infection, the replete tick larvae fall from the chicks can be collected and counted. The activity of the test compounds is calculated on the basis of the number of replete larvae on treated and untreated chicks in accordance with the formula [formula]
where Ct is the average number of larvae from treated chicks and Cu is the average number of larvae from untreated chicks.
In order to determine this type of activity, the replete larvae are kept, separated into treatment groups, in an incubator until all the larvae collected from untreated chicks have moulted. The activity is calculated using the above mentioned formula, with the average number of nymphs being used instead of the average number of larvae.
Reduction of more than + 80 % can be regarded as systemic action.

Compound	inhibition of the development of fleas [1] [%]	% reduction nymphs (Amblyomma hebraeum) [%]	% reduction larvae (Amblyomma hebraeum) [%]
CC1(C)OCC(COc2ccc(Oc3cc(F)cc(F)c3)cc2)O1 (stereo not shown) [2-dimethyl-4-[4-(3,5-difluorophenoxy)-phenoxymethyl]-1,3-dioxolane]	100		
CC1(C)OCC(COc2ccc(Oc3cccc(F)c3)cc2)O1 (stereo not shown) [2-dimethyl-4-[4-(3-fluorophenoxy)-phenoxymethyl]-1,3-dioxolane]	100		
CC(C)C1OCC(COc2ccc(Oc3cc(F)cc(F)c3)cc2)O1 (stereo not shown) [4-[4-(3,5-difluorophenoxy)-phenoxymethyl]-2-isopropyl-1,3-dioxolane]	100		
CCC1OCC(C)(COc2ccc(Oc3cccc(F)c3)cc2)O1 (stereo not shown) [compound 1, 2-ethyl-4-[4-(3-fluorophenoxy)-phenoxymethyl]-4-methyl-1,3-dioxolane]		83	83
c1ccc(Oc2ccc(OCC3COC(C4CC4)O3)cc2)cc1 (stereo not shown) [compound 2, 2-cyclopropyl-4-[4-(phenoxy)-phenoxymethyl]-1,3-dioxolane]		83	82
CCC1OCC(COc2ccc(Oc3cccc(F)c3)cc2)O1 (stereo not shown) [compound 3, 2-ethyl-4-[4-(3-fluorophenoxy)-phenoxymethyl]-1,3-dioxolane]	100	80	78
